Values quoted from earlier work in patent US20230180818A1, “AEROSOLISED FORMULATION” (NICOVENTURES TRADING LIMITED, priority 2018, published 2023).

Settings: compared to base cyclodextrins such as β-cyclodextrin

For 2-hydroxy-propyl-β-cyclodextrin, which solubility in water is on record?
Its solubility in water is “increased solubility in water”.
